Results: patent publication US9605005B2, “Alkynyl alcohols and methods of use” (Genentech, Inc., priority 2013, dated 2017)

What was measured:
[1] = tested on: p52 (NF-kB2) nuclear translocation, HeLa cells; experiment: p52 (NF-kB2) nuclear translocation assay in HeLa cells (non-classical NF-kB signaling, anti-lymphotoxin beta receptor antibody stimulated); format: cell-based; details: Homo sapiens, 100 ng/mL anti-lymphotoxin beta receptor antibody for 5 hours, read-out: p52 HeLa Transloc Assay (IC50)
Procedure, shortened: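 HeLa cells in 10% FBS medium were treated with compound (0.2% DMSO final) and stimulated with 100 ng/mL anti-lymphotoxin beta receptor antibody for 5 h. Fixed cells were immunostained for p52 and imaged with DRAQ5 nuclear stain. Translocation is the nuclear to cytoplasmic intensity ratio, and IC50 values are in micromolar.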

[2] = tested on: REL-A (p65) nuclear translocation, HeLa cells; experiment: REL-A (p65) nuclear translocation assay in HeLa cells (classical NF-kB signaling, TNF-α stimulated); format: cell-based; details: Homo sapiens, 0.5 h; HeLa cells, 10 ng/mL TNF-α for 30 minutes; read-out: REL-A HeLa Transloc Assay (IC50)
Procedure, shortened: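 HeLa cells were exposed to test compounds at various concentrations (0.2% DMSO final) in medium with 10% fetal bovine serum for 4.5 hours, then stimulated for 30 minutes with 10 ng/mL TNF-α. After fixation in 4% paraformaldehyde, 0.1% Triton X-100 permeabilization and staining with 400 ng/mL anti-REL-A (p65) antibody, Alexa488 secondary and DRAQ5, Opera imaging gave nuclear-to-cytoplasmic signal ratios to calculate IC50.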

[3] = biological target: nuclear factor-kappa B (NF-kB)-inducing kinase (NIK) (Homo sapiens (Human), UniProt Q99558); experiment: NIK enzyme inhibition assay (Transcreener ADP, NIK ADP-FP); format: biochemical; details: purified NIK 0.5 nM, 10 μM ATP, fluorescence polarization; read-out: NIK ADP-FP (Ki μM)
Sequence of nuclear factor-kappa B (NF-kB)-inducing kinase (NIK) (Q99558 whole entry): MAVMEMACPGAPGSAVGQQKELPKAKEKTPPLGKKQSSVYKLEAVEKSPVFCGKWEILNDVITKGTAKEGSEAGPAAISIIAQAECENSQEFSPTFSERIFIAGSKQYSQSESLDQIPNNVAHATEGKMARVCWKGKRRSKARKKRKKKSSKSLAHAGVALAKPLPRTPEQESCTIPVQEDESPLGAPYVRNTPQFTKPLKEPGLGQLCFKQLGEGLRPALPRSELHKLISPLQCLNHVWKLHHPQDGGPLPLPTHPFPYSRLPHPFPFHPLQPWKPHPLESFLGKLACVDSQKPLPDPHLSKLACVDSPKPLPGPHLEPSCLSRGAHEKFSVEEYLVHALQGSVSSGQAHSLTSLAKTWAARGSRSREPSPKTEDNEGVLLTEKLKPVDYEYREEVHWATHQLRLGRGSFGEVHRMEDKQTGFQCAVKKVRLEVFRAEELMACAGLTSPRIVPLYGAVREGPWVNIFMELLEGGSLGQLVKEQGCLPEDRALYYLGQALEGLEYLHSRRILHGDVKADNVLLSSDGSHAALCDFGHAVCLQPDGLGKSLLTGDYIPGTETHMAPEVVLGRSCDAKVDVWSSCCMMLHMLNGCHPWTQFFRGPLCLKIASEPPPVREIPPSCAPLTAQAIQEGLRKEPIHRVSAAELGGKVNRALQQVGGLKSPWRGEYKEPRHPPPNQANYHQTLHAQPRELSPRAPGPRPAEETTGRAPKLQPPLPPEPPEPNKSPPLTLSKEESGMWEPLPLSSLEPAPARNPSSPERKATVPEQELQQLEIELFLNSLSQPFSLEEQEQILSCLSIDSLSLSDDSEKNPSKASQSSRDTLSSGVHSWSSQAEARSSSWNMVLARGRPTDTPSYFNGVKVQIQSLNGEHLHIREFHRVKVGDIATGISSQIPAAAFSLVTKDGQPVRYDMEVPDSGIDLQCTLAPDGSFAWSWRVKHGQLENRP

| Structure (SMILES) | IC50 [1] [nM] | IC50 [2] [nM] | Ki [3] [nM] |
| --- | --- | --- | --- |
| Cc1ccc2c(C(N)=O)nn(-c3cccc(C#C[C@]4(O)CCN(C)C4=O)c3)c2n1 [Compound 175, 1-[3-[2-[(3R)-3-hydroxy-1-methyl-2-oxo-pyrrolidin-3-yl]ethynyl]phenyl]-6-methyl-pyrazolo[3,4-b]pyridine-3-carboxamide] | 135 | > 2000 | 0.05 |
| NC(=O)c1nn(-c2cc(C#C[C@]3(O)CCNC3=O)ccn2)c2cc(F)ccc12 [Compound 71, 6-fluoro-1-[4-[2-[(3R)-3-hy-droxy-2-oxo-pyrrolidin-3-yl]ethynyl]-2-pyridyl]indazole-3-carboxamide] | 178 | 20000 | 0.64 |
| C[C@@H](O)c1ccc2c(c1)c(C(N)=O)nn2-c1cccc(C#C[C@]2(O)CCN(C)C2=O)c1 [Compound 43, 5-[(1R)-1-hydroxyethyl]-1-[3-[2-[(3R)-3-hydroxy-1-meth-yl-2-oxo-pyrrolidin-3-yl]ethynyl]phenyl]indazole-3-carboxamide] | 921 | 20000 | 1.6 |
| COc1cc2c(cn1)c(C(N)=O)nn2-c1cccc(C#C[C@]2(O)CCN(C)C2=O)c1 [Compound 140, 1-[3-[2-[(3R)-3-hydroxy-1-methyl-2-oxo-pyrrolidin-3-yl]ethynyl]phenyl]-6-methoxy-pyrazolo[4,3-c]pyridine-3-carboxamide] | 38.2 | 8000 | 0.05 |
| CN1CC[C@@](O)(C#Cc2cccc(-n3nc(C(N)=O)c4cc(C#N)ccc43)c2)C1=O [Compound 42, 5-cyano-1-[3-[2-[(3R)-3-hy-droxy-1-methyl-2-oxo-pyrroli-din-3-yl]ethynyl]phenyl] indazole-3-carboxamide] | 392 | 20000 | 0.64 |
| NC(=O)c1nn(-c2cc(C#C[C@]3(O)CCc4cccnc43)ccn2)c2cc(F)ccc12 [Compound 72, 6-fluoro-1-[4-[2-[(7R)-7-hy-droxy-5,6-dihydrocyclopen-ta[b]pyridin-7-yl]ethynyl]-2-pyridyl]indazole-3-carbox-amide] | 247 | 20000 | 0.14 |
| CCOC(=O)N1CCc2c(c(C(N)=O)nn2-c2cc(C#C[C@]3(O)CCN(C)C3=O)ccn2)C1 [Compound 165, ethyl 3-carbamoyl-1-[4-[2-[(3R)-3-hydroxy-1-methyl-2-oxo-pyrrolidin-3-yl]ethynyl]-2-pyridyl]-6,7-dihydro-4H-pyra-zolo[4,3-c]pyridine-5-car-boxylate] | 274 | 20000 | 0.23 |
| COc1ccc2c(c1)c(C(N)=O)nn2-c1cc(C#C[C@]2(O)CCN(C)C2=O)ccn1 [Compound 65, 1-[4-[2-[(3R)-3-hydroxy-1-methyl-2-oxo-pyrrolidin-3-yl]ethynyl]-2-pyridyl]-5-meth-oxy-indazole-3-carboxamide] | 14 | 2000 | 0.05 |
| CN1CC[C@@](O)(C#Cc2cccc(-n3nc(C(N)=O)c4c3CCCN4)c2)C1=O [Compound 151, 1-[3-[2-[(3R)-3-hydroxy-1-methyl-2-oxo-pyrrolidin-3-yl]ethynyl]phenyl]-4,5,6,7-tetra-hydropyrazolo[4,3-b]pyri-dine-3-carboxamide] | 1030 | 2000 | 3.96 |
| CC1Cc2c(C(N)=O)nn(-c3cccc(C#C[C@]4(O)CCN(C)C4=O)c3)c2C1 (stereo partly drawn) [Compound 188, 1-[3-[2-[(3R)-3-hydroxy-1-methyl-2-oxo-pyrrolidin-3-yl]ethynyl]phenyl]-5-methyl-5,6-dihydro-4H-cyclopenta [c]pyrazole-3-carboxamide] | 205 | > 2000 | 0.85 |
| CN1CC[C@@](O)(C#Cc2cccc(-c3nc(C(N)=O)n4ccc(C(N)=O)cc34)c2)C1=O [Compound 178, 1-[3-[2-[(3R)-3-hydroxy-1-methyl-2-oxo-pyrrolidin-3-yl]ethynyl]phenyl]imidazo [1,5-a]pyridine-3,7-dicarboxamide] | 636 | > 2000 | 0.1 |
| Cc1ncc2c(C(N)=O)nn(-c3cccc(C#C[C@]4(O)CCN(C)C4=O)c3)c2n1 [Compound 157, 1-[3-[2-[(3R)-3-hydroxy-1-methyl-2-oxo-pyrrolidin-3-yl]ethynyl]phenyl]-6-methyl-pyrazolo[3,4-d]pyrimidine-3-carboxamide] | 157 | 2000 | 0.68 |
| CN1CC[C@@](O)(C#Cc2cccc(-n3nc(C(N)=O)c4c3CCN(C(=O)OC(C)(C)C)C4)c2)C1=O [Compound 16, tert-butyl 3-carbamoyl-1-[3-[2-[(3R)-3-hydroxy-1-methyl-2-oxo-pyrrolidin-3-yl]ethynyl]phe-nyl]-6,7-dihydro-4H-pyrazolo [4,3-c]pyridine-5-carboxylate] | 125 | 20000 | 0.9 |
| CCCC(=O)N(C)Cc1ccc2c(c1)c(C(N)=O)nn2-c1cc(C#C[C@]2(O)CCN(C)C2=O)ccn1 [Compound 142, 5-[[butanoyl(methyl)amino]methyl]-1-[4-[2-[(3R)-3-hy-droxy-1-methyl-2-oxo-pyrroli-din-3-yl]ethynyl]-2-pyri-dyl]indazole-3-carboxamide] | 793 | 20000 | 1.71 |
| CN1CC[C@@](O)(C#Cc2cccc(-n3nc(C(N)=O)c4cncnc43)c2)C1=O [Compound 114, 1-[3-[2-[(3R)-3-hydroxy-1-methyl-2-oxo-pyrrolidin-3-yl]ethynyl]phenyl]pyrazolo [3,4-d]pyrimidine-3-carbox-amide] | 39.4 | 20000 | 0.19 |
| COc1ccn2c(C(N)=O)nc(-c3cccc(C#C[C@]4(O)CCN(C)C4=O)c3)c2c1 [Compound 97, 1-[3-[2-[(3R)-3-hydroxy-1-methyl-2-oxo-pyrrolidin-3-yl]ethynyl]phenyl]-7-methoxy-imidazo[1,5-a]pyridine-3-carboxamide] | 6.6 | 1000 | 0.05 |
| CN1CC[C@@](O)(C#Cc2cccc(-n3nc(C(N)=O)c4c3CCCC4)c2)C1=O [Compound 57, 1-[3-[2-[(3R)-3-hydroxy-1-methyl-2-oxo-pyrrolidin-3-yl]ethynyl]phenyl]-4,5,6,7-tetra-hydroindazole-3-carbox-amide] | 405 | 20000 | 1.4 |
| CN1CC[C@@](O)(C#Cc2cccc(-n3nc(C(N)=O)c4ccnnc43)c2)C1=O [Compound 174, 1-[3-[2-[(3R)-3-hydroxy-1-methyl-2-oxo-pyrrolidin-3-yl]ethynyl]phenyl]pyrazolo [3,4-c]pyridazine-3-carbox-amide] | 2000 | 2000 | 0.13 |
| Cc1c(Cl)c(C(N)=O)nn1-c1cc(C#C[C@]2(O)CCN(C)C2=O)ccn1 [Compound 78, 4-chloro-1-[4-[2-[(3R)-3-hy-droxy-1-methyl-2-oxo-pyrroli-din-3-yl]ethynyl]-2-pyri-dyl]-5-methyl-pyrazole-3-car-boxamide] | 2710 | 20000 | 16.8 |
| COc1cc2c(C(N)=O)nn(-c3cccc(C#C[C@]4(O)CCN(C)C4=O)c3)c2cn1 [Compound 150, 1-[3-[2-[(3R)-3-hydroxy-1-methyl-2-oxo-pyrrolidin-3-yl]ethynyl]phenyl]-5-methoxy-pyrazolo[3,4-c]pyridine-3-carboxamide] | 57.3 | 20000 | 0.29 |
| CN1CC[C@@](O)(C#Cc2cccc(-c3nn(C(N)=O)c4ccccc34)c2)C1=O [Compound 147, 3-[3-[2-[(3R)-3-hydroxy-1-methyl-2-oxo-pyrrolidin-3-yl]ethynyl]phenyl]indazole-1-carboxamide] | 14.1 | 20000 | 0.324 |
| CN1CC[C@@](O)(C#Cc2cccc(-n3nc(C(N)=O)c4c3COCC4)c2)C1=O [Compound 69, 1-[3-[2-[(3R)-3-hydroxy-1-methyl-2-oxo-pyrrolidin-3-yl]ethynyl]phenyl]-5,7-dihy-dro-4H-pyrano[3,4-c]pyrazole-3-carboxamide] | 945 | 20000 | 3.98 |
| CN1CC[C@@](O)(C#Cc2cccc(-n3nc(C(N)=O)c4c3COC4)c2)C1=O [Compound 146, 1-[3-[2-[(3R)-3-hydroxy-1-methyl-2-oxo-pyrrolidin-3-yl]ethynyl]phenyl]-4,6-dihydro-furo[3,4-c]pyrazole-3-carbox-amide] | 220 | 20000 | 1.77 |
| CN1CC[C@@](O)(C#Cc2ccnc(-n3nc(C(N)=O)c4c(F)cccc43)c2)C1=O [Compound 10, 4-fluoro-1-[4-[2-[(3R)-3-hy-droxy-1-methyl-2-oxo-pyrroli-din-3-yl]ethynyl]-2-pyri-dyl]indazole-3-carboxamide] | 66.3 | 20000 | 1.19 |
| CN1CC[C@@](O)(C#Cc2cccc(-n3nc(C(N)=O)c4c3[C@H](O)CC4)c2)C1=O [Compound 169, (6R)-6-hydroxy-1-[3-[2-[(3R)-3-hydroxy-1-methyl-2-oxo-pyrrolidin-3-yl]ethynyl]phenyl]-5,6-dihydro-4H-cyclo-penta[c]pyrazole-3-carbox-amide] | 1120 | 20000 | 2.96 |
